# Assays:
# Assay type in all cases: in vivo
# [1] = system: barnyardgrass (Echinochloa crus-galli); assay: Test G Pre-Emergence Protocol; conditions: Echinochloa crus-galli, pre-emergence, 312 h, evaluated after 13 days; for pest or weed control at 15.625 g/ha: 15.625 g ai/ha, read-out: Barnyard grass damage rating (100=total damage to plant; 0=no damage to plant); for pest or weed control at 62.5 g/ha: 62.5 g ai/ha, 100=total damage to plant, 0=no damage to plant, read-out: plant damage rating, Barnyardgrass; for pest or weed control at 250 g/ha: 250 g ai/ha, read-out: Barnyardgrass damage rating (100=total damage to plant; 0=no damage to plant)
# Procedure, shortened: (§1)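 Scores are visual damage ratings from 0 (no damage) to 100 (total plant kill), taken 13 days after treatment. Compound was sprayed one day post-sowing at 15.625, 62.5 or 250 g/ha in 50:50 acetone/water with 0.5% Tween 20.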
# [2] = system: giant foxtail (Setaria faberi); assay: Test G Pre-Emergence Protocol; conditions: Setaria faberi, pre-emergence, 312 h, evaluated after 13 days; for pest or weed control at 15.625 g/ha: 15.625 g ai/ha; for pest or weed control at 15.625 g/ha / pest or weed control at 250 g/ha: read-out: Foxtail, Giant damage rating (100=total damage to plant; 0=no damage to plant); for pest or weed control at 62.5 g/ha: 62.5 g ai/ha, 100=total damage to plant, 0=no damage to plant, read-out: plant damage rating, Foxtail, Giant; for pest or weed control at 250 g/ha: 250 g ai/ha
# Procedure, shortened: as §1
# [3] = system: velvetleaf (Abutilon theophrasti); assay: Test G Pre-Emergence Protocol; conditions: Abutilon theophrasti, pre-emergence, 312 h, evaluated after 13 days; for pest or weed control at 15.625 g/ha: 15.625 g ai/ha; for pest or weed control at 15.625 g/ha / pest or weed control at 250 g/ha: read-out: Velvetleaf damage rating (100=total damage to plant; 0=no damage to plant); for pest or weed control at 62.5 g/ha: 62.5 g ai/ha, 100=total damage to plant, 0=no damage to plant, read-out: plant damage rating, Velvetleaf; for pest or weed control at 250 g/ha: 250 g ai/ha
# Procedure, shortened: as §1
# [4] = system: redroot pigweed (Amaranthus retroflexus); assay: Test G Pre-Emergence Protocol; conditions: Amaranthus retroflexus, pre-emergence, 312 h, evaluated after 13 days; for pest or weed control at 15.625 g/ha: 15.625 g ai/ha; for pest or weed control at 15.625 g/ha / pest or weed control at 250 g/ha: read-out: Pigweed, Redroot damage rating (100=total damage to plant; 0=no damage to plant); for pest or weed control at 62.5 g/ha: 62.5 g ai/ha, 100=total damage to plant, 0=no damage to plant, read-out: plant damage rating, Pigweed, Redroot; for pest or weed control at 250 g/ha: 250 g ai/ha
# Procedure, shortened: as §1
# corn (Zea mays) [5] = assay: Test G Pre-Emergence Protocol; conditions: Zea mays, pre-emergence, 312 h, evaluated after 13 days; for plant injury at 15.625 g/ha: 15.625 g ai/ha; for plant injury at 15.625 g/ha / plant injury at 250 g/ha: read-out: Corn damage rating (100=total damage to plant; 0=no damage to plant); for plant injury at 62.5 g/ha: 62.5 g ai/ha, 100=total damage to plant, 0=no damage to plant, read-out: plant damage rating, Corn; for plant injury at 250 g/ha: 250 g ai/ha
# Procedure, shortened: as §1
# [6] = system: ivy-leaved morning glory (Ipomoea hederacea); assay: Test G Pre-Emergence Protocol; conditions: Ipomoea, pre-emergence, 312 h, evaluated after 13 days; for pest or weed control at 15.625 g/ha: 15.625 g ai/ha, read-out: Morning-glory, Ivy-leaved damage rating (100=total damage to plant; 0=no damage to plant); for pest or weed control at 62.5 g/ha: 62.5 g ai/ha, 100=total damage to plant, 0=no damage to plant, read-out: plant damage rating, Morningglory, Ivy-leaved; for pest or weed control at 250 g/ha: 250 g ai/ha, read-out: Morningglory, Ivy-leaved damage rating (100=total damage to plant; 0=no damage to plant)
# Procedure, shortened: as §1
# [7] = system: barnyardgrass (Echinochloa crus-galli); assay: Test G Post-Emergence Protocol; conditions: Echinochloa crus-galli, post-emergence, 312 h; for pest or weed control at 15.625 g/ha: 15.625 g ai/ha, evaluated after 13 days (100=total damage to plant; 0=no damage to plant), read-out: Barnyardgrass damage rating; for pest or weed control at 62.5 g/ha: 62.5 g ai/ha, read-out: Barnyardgrass damage rating (100=total damage to plant; 0=no damage to plant); for pest or weed control at 62.5 g/ha / pest or weed control at 250 g/ha: evaluated after 13 days; for pest or weed control at 250 g/ha: 250 g ai/ha, read-out: damage to plant, Barnyardgrass (100=total damage to plant; 0=no damage to plant)
# Procedure, shortened: (§2)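 Damage was rated 13 days after treatment from 0 (none) to 100 (plant killed). Compound was applied as a spray at 15.625, 62.5 or 250 g/ha in 50:50 acetone/water containing 0.5% Tween 20, onto 8-day-old potted plants kept in a glasshouse (24/16 °C, 14 h light, 65% humidity).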
# [8] = system: giant foxtail (Setaria faberi); assay: Test G Post-Emergence Protocol; conditions: Setaria faberi, post-emergence, 312 h; for pest or weed control at 15.625 g/ha: 15.625 g ai/ha, evaluated after 13 days (100=total damage to plant; 0=no damage to plant), read-out: Foxtail, Giant damage rating; for pest or weed control at 62.5 g/ha: 62.5 g ai/ha, read-out: Foxtail, Giant damage rating (100=total damage to plant; 0=no damage to plant); for pest or weed control at 62.5 g/ha / pest or weed control at 250 g/ha: evaluated after 13 days; for pest or weed control at 250 g/ha: 250 g ai/ha, read-out: damage to plant, Foxtail, Giant (100=total damage to plant; 0=no damage to plant)
# Procedure, shortened: as §2
# [9] = system: velvetleaf (Abutilon theophrasti); assay: Test G Post-Emergence Protocol; conditions: Abutilon theophrasti, post-emergence, 312 h; for pest or weed control at 15.625 g/ha: 15.625 g ai/ha, evaluated after 13 days (100=total damage to plant; 0=no damage to plant), read-out: Velvetleaf damage rating; for pest or weed control at 62.5 g/ha: 62.5 g ai/ha, read-out: Velvetleaf damage rating (100=total damage to plant; 0=no damage to plant); for pest or weed control at 62.5 g/ha / pest or weed control at 250 g/ha: evaluated after 13 days; for pest or weed control at 250 g/ha: 250 g ai/ha, read-out: damage to plant, Velvetleaf (100=total damage to plant; 0=no damage to plant)
# Procedure, shortened: as §2
# [10] = system: redroot pigweed (Amaranthus retroflexus); assay: Test G Post-Emergence Protocol; conditions: Amaranthus retroflexus, post-emergence, 312 h; for pest or weed control at 15.625 g/ha: 15.625 g ai/ha, evaluated after 13 days (100=total damage to plant; 0=no damage to plant), read-out: Pigweed, Redroot damage rating; for pest or weed control at 62.5 g/ha: 62.5 g ai/ha, read-out: Pigweed, Redroot damage rating (100=total damage to plant; 0=no damage to plant); for pest or weed control at 62.5 g/ha / pest or weed control at 250 g/ha: evaluated after 13 days; for pest or weed control at 250 g/ha: 250 g ai/ha, read-out: damage to plant, Pigweed, Redroot (100=total damage to plant; 0=no damage to plant)
# Procedure, shortened: as §2
# corn (Zea mays) [11] = assay: Test G Post-Emergence Protocol; conditions: Zea mays, post-emergence, 312 h; for plant injury at 15.625 g/ha: 15.625 g ai/ha, evaluated after 13 days (100=total damage to plant; 0=no damage to plant), read-out: Corn damage rating; for plant injury at 62.5 g/ha: 62.5 g ai/ha, read-out: Corn damage rating (100=total damage to plant; 0=no damage to plant); for plant injury at 62.5 g/ha / plant injury at 250 g/ha: evaluated after 13 days; for plant injury at 250 g/ha: 250 g ai/ha, read-out: damage to plant, Corn (100=total damage to plant; 0=no damage to plant)
# Procedure, shortened: as §2
# [12] = system: ivy-leaved morning glory (Ipomoea hederacea); assay: Test G Post-Emergence Protocol; conditions: Ipomoea, post-emergence, 312 h; for pest or weed control at 15.625 g/ha: 15.625 g ai/ha, evaluated after 13 days (100=total damage to plant; 0=no damage to plant), read-out: Morningglory, Ivy-leaved damage rating; for pest or weed control at 62.5 g/ha: 62.5 g ai/ha, read-out: Morningglory, Ivy-leaved damage rating (100=total damage to plant; 0=no damage to plant); for pest or weed control at 62.5 g/ha / pest or weed control at 250 g/ha: evaluated after 13 days; for pest or weed control at 250 g/ha: 250 g ai/ha, read-out: damage to plant, Morningglory, Ivy-leaved (100=total damage to plant; 0=no damage to plant)
# Procedure, shortened: as §2
Structure (SMILES),pest or weed control at 15.625 g/ha [1] [%],pest or weed control at 62.5 g/ha [1] [%],pest or weed control at 250 g/ha [1] [%],pest or weed control at 15.625 g/ha [2] [%],pest or weed control at 62.5 g/ha [2] [%],pest or weed control at 250 g/ha [2] [%],pest or weed control at 15.625 g/ha [3] [%],pest or weed control at 62.5 g/ha [3] [%],pest or weed control at 250 g/ha [3] [%],pest or weed control at 15.625 g/ha [4] [%],pest or weed control at 62.5 g/ha [4] [%],pest or weed control at 250 g/ha [4] [%],plant injury at 15.625 g/ha (corn (Zea mays) [5]) [%],plant injury at 62.5 g/ha (corn (Zea mays) [5]) [%],plant injury at 250 g/ha (corn (Zea mays) [5]) [%],pest or weed control at 15.625 g/ha [6] [%],pest or weed control at 62.5 g/ha [6] [%],pest or weed control at 250 g/ha [6] [%],pest or weed control at 15.625 g/ha [7] [%],pest or weed control at 62.5 g/ha [7] [%],other results
Cc1ccc(NC(=O)[C@H]2C(=O)N(C)C[C@@H]2c2ccc(C(F)(F)F)cc2)nc1 (racemic) [Compound 1484],0,10,30,10,10,30,0,0,0,0,0,20,20,10,30,0,0,0,20,20,pest or weed control at 250 g/ha [7]: 40%; pest or weed control at 15.625 g/ha [8]: 10%; pest or weed control at 62.5 g/ha [8]: 10%; pest or weed control at 250 g/ha [8]: 30%; pest or weed control at 15.625 g/ha [9]: 0%; pest or weed control at 62.5 g/ha [9]: 0%; pest or weed control at 250 g/ha [9]: 10%; pest or weed control at 15.625 g/ha [10]: 10%; pest or weed control at 62.5 g/ha [10]: 0%; pest or weed control at 250 g/ha [10]: 20%; plant injury at 15.625 g/ha (corn (Zea mays) [11]): 20%; plant injury at 62.5 g/ha (corn (Zea mays) [11]): 0%; plant injury at 250 g/ha (corn (Zea mays) [11]): 30%; pest or weed control at 15.625 g/ha [12]: 0%; pest or weed control at 62.5 g/ha [12]: 0%; pest or weed control at 250 g/ha [12]: 0%
CN1C[C@@H](c2cc(Cl)nc(C(F)(F)F)c2)[C@H](C(=O)Nc2cccc(F)c2F)C1=O (racemic) [Compound 1485],60,90,90,60,90,90,0,0,30,0,30,60,40,70,80,0,0,0,50,70,pest or weed control at 250 g/ha [7]: 70%; pest or weed control at 15.625 g/ha [8]: 60%; pest or weed control at 62.5 g/ha [8]: 70%; pest or weed control at 250 g/ha [8]: 70%; pest or weed control at 15.625 g/ha [9]: 0%; pest or weed control at 62.5 g/ha [9]: 10%; pest or weed control at 250 g/ha [9]: 20%; pest or weed control at 15.625 g/ha [10]: 0%; pest or weed control at 62.5 g/ha [10]: 20%; pest or weed control at 250 g/ha [10]: 40%; plant injury at 15.625 g/ha (corn (Zea mays) [11]): 40%; plant injury at 62.5 g/ha (corn (Zea mays) [11]): 70%; plant injury at 250 g/ha (corn (Zea mays) [11]): 80%; pest or weed control at 15.625 g/ha [12]: 0%; pest or weed control at 62.5 g/ha [12]: 0%; pest or weed control at 250 g/ha [12]: 20%
CN1C[C@@H](c2cnc(Cl)c(Cl)c2)[C@H](C(=O)Nc2cccc(F)c2F)C1=O (racemic) [Compound 1487],30,90,80,80,90,90,0,0,30,0,0,80,10,20,70,0,0,20,50,60,pest or weed control at 250 g/ha [7]: 70%; pest or weed control at 15.625 g/ha [8]: 60%; pest or weed control at 62.5 g/ha [8]: 70%; pest or weed control at 250 g/ha [8]: 70%; pest or weed control at 15.625 g/ha [9]: 0%; pest or weed control at 62.5 g/ha [9]: 0%; pest or weed control at 250 g/ha [9]: 20%; pest or weed control at 15.625 g/ha [10]: 20%; pest or weed control at 62.5 g/ha [10]: 0%; pest or weed control at 250 g/ha [10]: 30%; plant injury at 15.625 g/ha (corn (Zea mays) [11]): 20%; plant injury at 62.5 g/ha (corn (Zea mays) [11]): 60%; plant injury at 250 g/ha (corn (Zea mays) [11]): 70%; pest or weed control at 15.625 g/ha [12]: 0%; pest or weed control at 62.5 g/ha [12]: 0%; pest or weed control at 250 g/ha [12]: 20%

# — patent US12077503B2, “Substituted cyclic amides and their use as herbicides” (FMC CORPORATION, priority 2015, dated 2024)
